Data as given in patent US11066409B2, “Bicyclic nitrogen-containing heterocyclic derivatives and pharmaceutical composition comprising the same” (Shionogi & Co., Ltd., priority 2016, dated 2021).

Each compound was assayed against human P2X7 receptor (Homo sapiens (Human), UniProt Q99572, R270H) (assay: Evaluation of a human P2X7 receptor inhibitory activity (Yo-Pro uptake, BzATP stimulation, FLIPR TETRA)). Conditions: 1321N1 cells stably expressing human P2X7 receptor, Yo-Pro fluorescence.
Type: cell-based
Description: Evaluation of a human P2X7 receptor inhibitory activity Stably expressing cell line (1321N1 cell transfected with the human P2X7 receptor gene (GenBank accession number NM_002562.5 including T606C and G952A SNP)) was used. The cells were seeded in a 384-well microtiter plate at a concentration of 8000 cells/well and cultured in the medium (10% fetal bovine serum, 25 mM HEPES, 1% penicillin and streptomycin in DMEM) for one day at 37° C. under 5% carbon dioxide atmosphere. After replacing with 20 μL of the HBSS buffer (20 mM HEPES, 55.6 mM D-glucose, 1× HBSS(−), pH7.4-7.5), 15 μL of 17.3 μM Yo-Pro solution in the HBSS buffer was added. The plate was placed in high-throughput cellular screening system FLIPR TETRA (Molecullar Devices, LLC.) and 15 μL of 130 μM BzATP solution in the HBSS buffer was added. Measurement of fluorescence intensity by FLIPR TETRA was started. After eight minutes, 15 μL of DMSO solutions containing different concentrations of the compound of the present invention as prepared by dilution with the HBSS buffer were dispensed to each well through the built-in automatic dispenser, and the measurement of fluorescence intensity was continued for 20 minutes. The maximum fluorescence intensity without the compound of the present invention is calculated as 0% inhibition and the maximum fluorescence intensity when the reference compound was added is calculated as 100% inhibition. Changing values of fluorescence intensity by the compound of the present invention were calculated by difference between maximum and minimum fluorescence intensity for 20 minutes. Inhibition ratios (%) were calculated from the following equation:
[formula] IC50 was calculated using logistic approximation.
As for IC50 value, value to below 10 nmol/L is represented as “A”, value from 10 nmol/L to below 100 nmol/L is represented as “B”, value from 100 nmol/L to below 500 nmol/L is represented as “C”, and value from 500 nmol/L to below 1 μmol/L is represented as “D”.

Chain of human P2X7 receptor (Q99572 whole entry R270H): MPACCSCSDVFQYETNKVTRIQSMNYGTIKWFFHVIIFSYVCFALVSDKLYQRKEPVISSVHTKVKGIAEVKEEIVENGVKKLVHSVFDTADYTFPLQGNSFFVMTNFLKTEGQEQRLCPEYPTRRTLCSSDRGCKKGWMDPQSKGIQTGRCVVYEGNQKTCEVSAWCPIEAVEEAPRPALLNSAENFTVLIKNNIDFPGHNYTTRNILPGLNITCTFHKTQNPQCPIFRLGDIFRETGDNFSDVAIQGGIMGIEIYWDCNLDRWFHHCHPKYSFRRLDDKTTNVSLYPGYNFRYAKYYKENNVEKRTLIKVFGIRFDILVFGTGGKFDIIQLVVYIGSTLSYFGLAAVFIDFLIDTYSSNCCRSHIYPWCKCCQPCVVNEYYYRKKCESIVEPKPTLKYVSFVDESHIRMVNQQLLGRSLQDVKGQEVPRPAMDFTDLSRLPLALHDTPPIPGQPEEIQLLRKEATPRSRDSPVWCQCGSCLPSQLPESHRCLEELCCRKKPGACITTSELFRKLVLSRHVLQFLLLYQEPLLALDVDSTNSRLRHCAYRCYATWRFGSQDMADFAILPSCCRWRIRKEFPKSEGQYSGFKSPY

| SMILES | IC50 |
| --- | --- |
| Cc1nc2cc(C)c(Nc3nc(=O)cc4n3C(c3ccccc3)CN4)cc2s1 (stereo not shown) [Compound I-0100] | 0.012 µM |
| Cc1cc(C)c(Nc2nc(=O)cc3n2C(c2ccccc2)CN3C)cc1C (stereo not shown) [Compound I-0106] | 0.011 µM |
| CCN1C(=O)N=C(Nc2cc(C)c(C)cc2C)N2C1=NCC2c1ccccc1 (stereo not shown) [Compound I-0107] | 0.025 µM |
| COc1cc(NC2=NC(=O)N(C)C3=NCC(c4ccc(F)cc4)N23)c(C)cc1F (stereo not shown) [Compound I-0150] | 0.018 µM |
| COc1ccc(NC2=NC(=O)N(C)C3=NCC(c4ccc(F)cc4)N23)c(C)c1F (stereo not shown) [Compound I-0151] | 0.014 µM |

Same assay, conditions: 1321N1 cells stably expressing human P2X7 receptor, Yo-Pro fluorescence, class symbols

| SMILES | IC50 |
| --- | --- |
| COc1ccc(/N=c2\[nH]c(=O)c(F)c3n2C(c2ccc(F)cc2F)CC3)c(C)n1 (stereo not shown) [Compound I-0093] | 0.1 to 0.5 µM |
| COc1nc(C)c(Nc2nc(=O)cc3n2C(c2ccc(F)c(Cl)c2)CC3)cc1F (stereo not shown) [Compound I-0094] | 0.01 to 0.1 µM |
| COc1ccc(/N=c2\[nH]c(=O)c(F)c3n2C(c2cc(F)cc(F)c2)CC3)c(C)n1 (stereo not shown) [Compound I-0095] | 0.01 to 0.1 µM |
| CCOc1ccc(Nc2nc(=O)c(F)c3n2C(c2cc(F)cc(F)c2)CC3)c(CC)n1 (stereo not shown) [Compound I-0096] | 0.01 to 0.1 µM |
| COc1ccc(Nc2nc(=O)c(F)c3n2C(c2cc(F)cc(F)c2)CC3)c(C)c1 (stereo not shown) [Compound I-0097] | < 0.01 µM |
| COc1ccc(C)c(Nc2nc(=O)c(F)c3n2C(c2cc(F)cc(F)c2)CC3)c1 (stereo not shown) [Compound I-0098] | < 0.01 µM |
| Cc1nc2cc(C)c(Nc3nc(=O)c(F)c4n3C(c3cc(F)cc(F)c3)CC4)cc2s1 (stereo not shown) [Compound I-0101] | 0.01 to 0.1 µM |
| Cc1nc2cc(C)c(Nc3nc(=O)cc4n3C(c3ccccc3)CN4C)cc2s1 (stereo not shown) [Compound I-0103] | 0.01 to 0.1 µM |
| COc1ccc(Nc2nc(=O)cc3n2C(c2ccccc2)CN3C)c(C)c1 (stereo not shown) [Compound I-0104] | 0.01 to 0.1 µM |
| COc1ccc(C)c(Nc2nc(=O)cc3n2C(c2ccccc2)CN3C)c1 (stereo not shown) [Compound I-0105] | 0.01 to 0.1 µM |
| COc1ccc(Nc2nc(=O)c(F)c3n2C(c2cc(F)cc(F)c2)CC3)c(C)c1F (stereo not shown) [Compound I-0108] | 0.01 to 0.1 µM |
| CCN1C(=O)N=C(Nc2cc(C)c(C)cc2C)N2C1=NCC2c1ccc(F)cc1 (stereo not shown) [Compound I-0109] | 0.01 to 0.1 µM |
| COc1ccc(Nc2nc(=O)cc3n2C(c2ccccc2)CN3C)c(C)c1 (stereo not shown) [Compound I-0110] | < 0.01 µM |
| CCN1C(=O)N=C(Nc2cc(C)c(C)cc2C)N2C1=NCC2c1ccccc1 (stereo not shown) [Compound I-0111] | < 0.01 µM |
| CCN1C(=O)N=C(Nc2ccc(C)nc2C)N2C1=NCC2c1ccc(F)cc1 (stereo not shown) [Compound I-0112] | 0.5 to 1 µM |
| CN1C(=O)N=C(Nc2cc(C3CC3)nn2C)N2C1=NCC2c1ccc(F)cc1 (stereo not shown) [Compound I-0113] | 0.5 to 1 µM |
| Cc1ccc(NC2=NC(=O)N(C)C3=NCC(c4cc(F)cc(F)c4)N23)c(C)n1 (stereo not shown) [Compound I-0114] | 0.1 to 0.5 µM |
| Cc1ccc(NC2=NC(=O)N(C)C3=NCC(c4ccc(F)c(F)c4)N23)c(C)n1 (stereo not shown) [Compound I-0115] | 0.1 to 0.5 µM |
| COc1cc(NC2=NC(=O)N(C)C3=NCC(c4ccc(F)c(F)c4)N23)c(C)nc1OC (stereo not shown) [Compound I-0116] | 0.1 to 0.5 µM |
| CCN1C(=O)N=C(Nc2ccc(OC)nc2C)N2C1=NCC2c1ccc(F)cc1 (stereo not shown) [Compound I-0117] | 0.1 to 0.5 µM |
| CCN1C(=O)N=C(Nc2cc(OC)c(OC)nc2C)N2C1=NCC2c1ccc(F)cc1 (stereo not shown) [Compound I-0118] | 0.1 to 0.5 µM |

| SMILES | IC50 |
| --- | --- |
| COc1ccc(NC2=NC(=O)N(C)C3=NCC(c4ccc(F)cc4)N23)c(C)n1 (stereo not shown) [Compound I-0119] | 0.01 to 0.1 µM |
| Cc1ccc(NC2=NC(=O)N(C)C3=NCC(c4ccc(F)cc4)N23)c(C)n1 (stereo not shown) [Compound I-0120] | 0.1 to 0.5 µM |
| COc1cc(C)c(NC2=NC(=O)N(C)C3=NCC(c4ccc(F)cc4)N23)cc1OC (stereo not shown) [Compound I-0121] | 0.01 to 0.1 µM |
| COc1ccc(NC2=NC(=O)N(C)C3=NCC(c4cc(F)cc(F)c4)N23)c(C)c1 (stereo not shown) [Compound I-0122] | 0.01 to 0.1 µM |
| COc1cnc(C)c(Nc2nc(=O)c(F)c3n2C(c2cc(F)cc(F)c2)CC3)c1 (stereo not shown) [Compound I-0123] | 0.01 to 0.1 µM |
| COc1ccc(C)c(NC2=NC(=O)N(C)C3=NCC(c4ccc(F)c(F)c4)N23)c1 (stereo not shown) [Compound I-0124] | 0.01 to 0.1 µM |
| COc1ccc(NC2=NC(=O)N(C)C3=NCC(c4ccc(F)c(F)c4)N23)c(C)c1 (stereo not shown) [Compound I-0125] | 0.01 to 0.1 µM |
| COc1cc(C)c(NC2=NC(=O)N(C)C3=NCC(c4ccc(F)c(F)c4)N23)cc1OC (stereo not shown) [Compound I-0126] | 0.01 to 0.1 µM |
| COc1ccc(NC2=NC(=O)N(C)C3=NCC(c4ccc(F)c(F)c4)N23)c(C)n1 (stereo not shown) [Compound I-0127] | 0.01 to 0.1 µM |
| COc1cc(Nc2nc(=O)cc3n2C(c2cc(F)cc(F)c2)CN3)c(C)cc1F (stereo not shown) [Compound I-0128] | 0.01 to 0.1 µM |
| COc1ccc(C)c(NC2=NC(=O)N(C)C3=NCC(c4ccc(F)cc4)N23)c1 (stereo not shown) [Compound I-0129] | 0.01 to 0.1 µM |
| COc1ccc(NC2=NC(=O)N(C)C3=NCC(c4ccc(F)cc4)N23)c(C)c1 (stereo not shown) [Compound I-0130] | 0.01 to 0.1 µM |
| COc1ccc(C)c(NC2=NC(=O)N(C)C3=NCC(c4cc(F)cc(F)c4)N23)c1 (stereo not shown) [Compound I-0131] | 0.01 to 0.1 µM |
| COc1cc(C)c(NC2=NC(=O)N(C)C3=NCC(c4cc(F)cc(F)c4)N23)cc1OC (stereo not shown) [Compound I-0132] | 0.01 to 0.1 µM |
| COc1cc(NC2=NC(=O)N(C)C3=NCC(c4cc(F)cc(F)c4)N23)c(C)nc1OC (stereo not shown) [Compound I-0133] | 0.01 to 0.1 µM |
| COc1cc(Nc2nc(=O)cc3n2C(c2cc(F)cc(F)c2)CN3)c(C)cc1F (stereo not shown) [Compound I-0134] | < 0.01 µM |
| COc1nc(C)c(Nc2nc(=O)c(F)c3n2C(c2cc(F)cc(F)c2)CC3)cc1C (stereo not shown) [Compound I-0136] | 0.01 to 0.1 µM |
| COc1ccc(NC2=NC(=O)N(C)C3=NCC(c4cc(F)cc(F)c4)N23)c(C)c1F (stereo not shown) [Compound I-0137] | 0.01 to 0.1 µM |
| CCN1C(=O)N=C(Nc2cc(OC)c(OC)cc2C)N2C1=NCC2c1ccc(F)cc1 (stereo not shown) [Compound I-0138] | 0.01 to 0.1 µM |
| CCN1C(=O)N=C(Nc2cc(OC)ccc2C)N2C1=NCC2c1ccc(F)cc1 (stereo not shown) [Compound I-0139] | 0.01 to 0.1 µM |
| CCN1C(=O)N=C(Nc2ccc(OC)cc2C)N2C1=NCC2c1ccc(F)cc1 (stereo not shown) [Compound I-0140] | 0.01 to 0.1 µM |

| SMILES | IC50 |
| --- | --- |
| COc1nc(C)c(Nc2nc(=O)c(F)c3n2C(c2cc(F)cc(F)c2)CC3)cc1F (stereo not shown) [Compound I-0141] | 0.01 to 0.1 µM |
| COc1ccc(NC2=NC(=O)N(C)C3=NCC(c4cc(F)c(F)c(F)c4)N23)c(C)n1 (stereo not shown) [Compound I-0143] | 0.01 to 0.1 µM |
| COc1ccc(NC2=NC(=O)N(C)C3=NCC(c4cc(F)cc(F)c4)N23)c(C)n1 (stereo not shown) [Compound I-0144] | 0.01 to 0.1 µM |
| Cc1ccc(C#N)cc1NC1=NC(=O)N(C)C2=NCC(c3cc(F)cc(F)c3)N12 (stereo not shown) [Compound I-0146] | 0.01 to 0.1 µM |
| COc1cc(NC2=NC(=O)N(C)C3=NCC(c4cc(F)cc(F)c4)N23)c(C)cc1F (stereo not shown) [Compound I-0148] | 0.01 to 0.1 µM |
| COc1cc(C)c(Nc2nc(=O)c(F)c3n2C(c2ccc(F)cc2)CN3C)cc1OC (stereo not shown) [Compound I-0152] | 0.01 to 0.1 µM |
| COc1cc(C)c(Nc2nc(=O)nc3n2C(c2cc(F)c(F)c(F)c2)CN3)cc1OC (stereo not shown) [Compound I-0153] | 0.01 to 0.1 µM |
| CCc1nc(OC)ccc1NC1=NC(=O)N(C)C2=NCC(c3cc(F)cc(F)c3)N12 (stereo not shown) [Compound I-0155] | 0.01 to 0.1 µM |
| Cc1nc2cc(C)c(NC3=NC(=O)N(C)C4=NCC(c5cc(F)c(F)c(F)c5)N34)cc2s1 (stereo not shown) [Compound I-0156] | 0.01 to 0.1 µM |
| CCOc1cc(NC2=NC(=O)N(C)C3=NCC(c4cc(F)c(F)c(F)c4)N23)c(C)cc1F (stereo not shown) [Compound I-0157] | 0.01 to 0.1 µM |
| COc1nc(C)c(NC2=NC(=O)N(C)C3=NCC(c4cc(F)c(F)c(F)c4)N23)cc1C (stereo not shown) [Compound I-0159] | 0.01 to 0.1 µM |
| COc1ccc(Nc2nc(=O)c(F)c3n2C(c2ccc(F)cc2)CN3C)c(C)n1 (stereo not shown) [Compound I-0160] | 0.01 to 0.1 µM |
| COc1ccc(Nc2nc(=O)c(F)c3n2C(c2cc(F)c(F)c(F)c2)CN3)c(C)n1 (stereo not shown) [Compound I-0163] | 0.01 to 0.1 µM |
| CCOc1ccc(NC2=NC(=O)N(C)C3=NCC(c4cc(F)c(F)c(F)c4)N23)c(CC)n1 (stereo not shown) [Compound I-0165] | 0.01 to 0.1 µM |
| COc1ccc(C)c(Nc2nc(=O)c(F)c3n2C(c2cc(F)c(F)c(F)c2)CN3)c1 (stereo not shown) [Compound I-0166] | 0.01 to 0.1 µM |
| COc1cc(NC2=NC(=O)N(C)C3=NCC(c4cc(F)c(F)c(F)c4)N23)c(C)nc1OC (stereo not shown) [Compound I-0167] | 0.1 to 0.5 µM |
| COCCOc1ccc(C)c(NC2=NC(=O)N(C)C3=NCC(Cc4ccccc4)N23)c1 (stereo not shown) [Compound I-0169] | 0.01 to 0.1 µM |
| COc1cc(C)c(Nc2nc(=O)n(C)c3ncn(Cc4ccccc4)c23)cc1OC [Compound I-0170] | 0.01 to 0.1 µM |
| Cc1cc(F)c(OCCO)cc1NC1=NC(=O)N(C)C2=NCC(c3cc(F)c(F)c(F)c3)N12 (stereo not shown) [Compound I-0172] | 0.01 to 0.1 µM |
| COc1ccc(C)c(Nc2nc(=O)n(C)c3ncn(Cc4ccccc4)c23)c1 [Compound I-0173] | 0.5 to 1 µM |
